Measurements from the NIST ThermoML archive (doi:10.1021/acs.jced.8b00554).
Numbers after ± are expanded uncertainties.

Test: xn = mol fraction of the nth substance listed
Settings: Liquid, Vibrating tube method

CCCCCCCCCC [decane] + CCCO
mass density [kg/m3]
Settings | 343.15 K | 353.15 K
100 kPa, x2 = 0.1391 | 687.56 ± 4.4 | 676.32 ± 4.3
100 kPa, x2 = 0.1907 | 688.32 ± 4.4 | 676.49 ± 4.3
100 kPa, x2 = 0.3001 | 690.77 ± 4.4 | 678.11 ± 4.3
100 kPa, x2 = 0.4326 | 694.55 ± 4.5 | 680.77 ± 4.4
100 kPa, x2 = 0.6863 | 710.6 ± 4.5 | 696.41 ± 4.5
100 kPa, x2 = 0.8711 | 732.51 ± 4.7 | 719.28 ± 4.6
1000 kPa, x2 = 0.1391 | – | 678.16 ± 4.3
1000 kPa, x2 = 0.1907 | – | 678.39 ± 4.3
1000 kPa, x2 = 0.8711 | – | 721.12 ± 4.6
1010 kPa, x2 = 0.1391 | 689.22 ± 4.4 | –
1010 kPa, x2 = 0.1907 | 690.02 ± 4.4 | –
1010 kPa, x2 = 0.3001 | 692.37 ± 4.4 | 679.67 ± 4.3
1010 kPa, x2 = 0.4326 | 696.46 ± 4.5 | –
1010 kPa, x2 = 0.6863 | 712.46 ± 4.6 | 698.52 ± 4.5
1010 kPa, x2 = 0.8711 | 734.14 ± 4.7 | –
1020 kPa, x2 = 0.4326 | – | 682.95 ± 4.4
2000 kPa, x2 = 0.6863 | 713.55 ± 4.6 | –
2010 kPa, x2 = 0.1391 | – | 679.31 ± 4.3
2010 kPa, x2 = 0.1907 | 691.1 ± 4.4 | –
2010 kPa, x2 = 0.3001 | 693.48 ± 4.4 | 680.84 ± 4.4
2010 kPa, x2 = 0.6863 | – | 699.68 ± 4.5
2010 kPa, x2 = 0.8711 | – | 722.21 ± 4.6
2020 kPa, x2 = 0.1391 | 690.3 ± 4.4 | –
2020 kPa, x2 = 0.1907 | – | 679.54 ± 4.3
2020 kPa, x2 = 0.4326 | 697.54 ± 4.5 | 684.1 ± 4.4
2020 kPa, x2 = 0.8711 | 735.16 ± 4.7 | –
3000 kPa, x2 = 0.1907 | – | 680.66 ± 4.4
3000 kPa, x2 = 0.3001 | – | 681.96 ± 4.4
3010 kPa, x2 = 0.1391 | 691.36 ± 4.4 | –
3010 kPa, x2 = 0.1907 | 692.15 ± 4.4 | –
3010 kPa, x2 = 0.3001 | 694.52 ± 4.5 | –
3010 kPa, x2 = 0.6863 | – | 700.85 ± 4.5
3010 kPa, x2 = 0.8711 | 736.2 ± 4.7 | –
3020 kPa, x2 = 0.1391 | – | 680.43 ± 4.4
3020 kPa, x2 = 0.4326 | 698.61 ± 4.5 | 685.26 ± 4.4
3020 kPa, x2 = 0.6863 | 714.64 ± 4.6 | –
3020 kPa, x2 = 0.8711 | – | 723.32 ± 4.6
4000 kPa, x2 = 0.1391 | 692.41 ± 4.4 | –
4000 kPa, x2 = 0.4326 | – | 686.44 ± 4.4
4000 kPa, x2 = 0.6863 | 715.75 ± 4.6 | –
4000 kPa, x2 = 0.8711 | 737.27 ± 4.7 | –
4010 kPa, x2 = 0.1391 | – | 681.55 ± 4.4
4010 kPa, x2 = 0.1907 | – | 681.83 ± 4.4
4010 kPa, x2 = 0.3001 | – | 683.13 ± 4.4
4010 kPa, x2 = 0.6863 | – | 702.05 ± 4.5
4020 kPa, x2 = 0.1907 | 693.23 ± 4.4 | –
4020 kPa, x2 = 0.3001 | 695.6 ± 4.5 | –
4020 kPa, x2 = 0.4326 | 699.72 ± 4.5 | –
4020 kPa, x2 = 0.8711 | – | 724.45 ± 4.6
5000 kPa, x2 = 0.4326 | 700.81 ± 4.5 | –
5000 kPa, x2 = 0.8711 | – | 725.63 ± 4.7
5010 kPa, x2 = 0.1391 | – | 682.67 ± 4.4
5010 kPa, x2 = 0.1907 | – | 682.92 ± 4.4
5010 kPa, x2 = 0.3001 | 696.69 ± 4.5 | 684.29 ± 4.4
5010 kPa, x2 = 0.4326 | – | 687.63 ± 4.4
5010 kPa, x2 = 0.6863 | 716.84 ± 4.6 | –
5020 kPa, x2 = 0.1391 | 693.45 ± 4.4 | –
5020 kPa, x2 = 0.1907 | 694.27 ± 4.5 | –
5020 kPa, x2 = 0.6863 | – | 703.25 ± 4.5
5020 kPa, x2 = 0.8711 | 738.33 ± 4.7 | –
6000 kPa, x2 = 0.6863 | – | 704.42 ± 4.5
6010 kPa, x2 = 0.1391 | – | 683.79 ± 4.4
6010 kPa, x2 = 0.1907 | 695.3 ± 4.5 | 684.03 ± 4.4
6010 kPa, x2 = 0.4326 | 701.9 ± 4.5 | 688.8 ± 4.4
6010 kPa, x2 = 0.6863 | 717.93 ± 4.6 | –
6010 kPa, x2 = 0.8711 | 739.41 ± 4.7 | –
6020 kPa, x2 = 0.1391 | 694.49 ± 4.5 | –
6020 kPa, x2 = 0.3001 | 697.74 ± 4.5 | 685.42 ± 4.4
6020 kPa, x2 = 0.8711 | – | 726.78 ± 4.7
7000 kPa, x2 = 0.4326 | 702.99 ± 4.5 | –
7000 kPa, x2 = 0.8711 | 740.46 ± 4.7 | –
7010 kPa, x2 = 0.1391 | 695.53 ± 4.5 | –
7010 kPa, x2 = 0.1907 | 696.35 ± 4.5 | –
7010 kPa, x2 = 0.3001 | 698.82 ± 4.5 | 686.6 ± 4.4
7010 kPa, x2 = 0.4326 | – | 690 ± 4.4
7010 kPa, x2 = 0.6863 | 719.02 ± 4.6 | –
7020 kPa, x2 = 0.1391 | – | 684.92 ± 4.4
7020 kPa, x2 = 0.1907 | – | 685.14 ± 4.4
7020 kPa, x2 = 0.6863 | – | 705.63 ± 4.5
7020 kPa, x2 = 0.8711 | – | 727.93 ± 4.7
8000 kPa, x2 = 0.1907 | 697.42 ± 4.5 | –
8000 kPa, x2 = 0.3001 | – | 687.74 ± 4.4
8000 kPa, x2 = 0.8711 | 741.52 ± 4.8 | –
8010 kPa, x2 = 0.1391 | 696.59 ± 4.5 | 686.06 ± 4.4
8010 kPa, x2 = 0.1907 | – | 686.32 ± 4.4
8010 kPa, x2 = 0.4326 | – | 691.17 ± 4.4
8010 kPa, x2 = 0.6863 | 720.12 ± 4.6 | 706.82 ± 4.5
8010 kPa, x2 = 0.8711 | – | 729.07 ± 4.7
8020 kPa, x2 = 0.3001 | 699.88 ± 4.5 | –
8020 kPa, x2 = 0.4326 | 704.06 ± 4.5 | –
9000 kPa, x2 = 0.1907 | 698.46 ± 4.5 | –
9000 kPa, x2 = 0.6863 | – | 708.03 ± 4.5
9010 kPa, x2 = 0.1391 | 697.61 ± 4.5 | –
9010 kPa, x2 = 0.3001 | 700.95 ± 4.5 | –
9010 kPa, x2 = 0.4326 | – | 692.36 ± 4.4
9010 kPa, x2 = 0.8711 | 742.57 ± 4.8 | 730.22 ± 4.7
9020 kPa, x2 = 0.1391 | – | 687.14 ± 4.4
9020 kPa, x2 = 0.1907 | – | 687.44 ± 4.4
9020 kPa, x2 = 0.3001 | – | 688.92 ± 4.4
9020 kPa, x2 = 0.4326 | 705.14 ± 4.5 | –
9020 kPa, x2 = 0.6863 | 721.21 ± 4.6 | –
10000 kPa, x2 = 0.4326 | 706.23 ± 4.5 | 693.57 ± 4.5
10000 kPa, x2 = 0.6863 | – | 709.2 ± 4.5
10010 kPa, x2 = 0.1391 | 698.62 ± 4.5 | 688.25 ± 4.4
10010 kPa, x2 = 0.3001 | 702.02 ± 4.5 | –
10010 kPa, x2 = 0.6863 | 722.27 ± 4.6 | –
10010 kPa, x2 = 0.8711 | 743.61 ± 4.8 | –
10020 kPa, x2 = 0.1907 | 699.47 ± 4.5 | –
11010 kPa, x2 = 0.1391 | 699.66 ± 4.5 | –
11010 kPa, x2 = 0.1907 | 700.5 ± 4.5 | –
11010 kPa, x2 = 0.4326 | 707.27 ± 4.5 | –
11010 kPa, x2 = 0.8711 | 744.65 ± 4.8 | –
11020 kPa, x2 = 0.3001 | 703.07 ± 4.5 | –
11020 kPa, x2 = 0.6863 | 723.34 ± 4.6 | –
12000 kPa, x2 = 0.4326 | 708.34 ± 4.5 | –
12000 kPa, x2 = 0.8711 | 745.65 ± 4.8 | –
12010 kPa, x2 = 0.1907 | 701.55 ± 4.5 | –
12010 kPa, x2 = 0.3001 | 704.1 ± 4.5 | –
12020 kPa, x2 = 0.1391 | 700.67 ± 4.5 | –
12020 kPa, x2 = 0.6863 | 724.37 ± 4.6 | –
13000 kPa, x2 = 0.1391 | 701.67 ± 4.5 | –
13000 kPa, x2 = 0.6863 | 725.42 ± 4.7 | –
13000 kPa, x2 = 0.8711 | 746.64 ± 4.8 | –
13010 kPa, x2 = 0.3001 | 705.15 ± 4.5 | –
13010 kPa, x2 = 0.4326 | 709.37 ± 4.5 | –
13020 kPa, x2 = 0.1907 | 702.55 ± 4.5 | –
14000 kPa, x2 = 0.3001 | 706.16 ± 4.5 | –
14000 kPa, x2 = 0.4326 | 710.39 ± 4.5 | –
14000 kPa, x2 = 0.6863 | 726.44 ± 4.7 | –
14000 kPa, x2 = 0.8711 | 747.65 ± 4.8 | –
14010 kPa, x2 = 0.1391 | 702.65 ± 4.5 | –
14020 kPa, x2 = 0.1907 | 703.54 ± 4.5 | –
15000 kPa, x2 = 0.1391 | 703.58 ± 4.5 | –
15000 kPa, x2 = 0.1907 | 704.5 ± 4.5 | –
15000 kPa, x2 = 0.6863 | 727.44 ± 4.7 | –
15010 kPa, x2 = 0.4326 | 711.38 ± 4.6 | –
15010 kPa, x2 = 0.8711 | 748.62 ± 4.8 | –
15020 kPa, x2 = 0.3001 | 707.12 ± 4.5 | –
16000 kPa, x2 = 0.6863 | 728.43 ± 4.7 | –
16000 kPa, x2 = 0.8711 | 749.58 ± 4.8 | –
16010 kPa, x2 = 0.1391 | 704.52 ± 4.5 | –
16010 kPa, x2 = 0.1907 | 705.46 ± 4.5 | –
16010 kPa, x2 = 0.3001 | 708.12 ± 4.5 | –
16020 kPa, x2 = 0.4326 | 712.37 ± 4.6 | –
17000 kPa, x2 = 0.1907 | 706.43 ± 4.5 | –
17000 kPa, x2 = 0.3001 | 709.07 ± 4.5 | –
17000 kPa, x2 = 0.4326 | 713.3 ± 4.6 | –
17010 kPa, x2 = 0.1391 | 705.45 ± 4.5 | –
17010 kPa, x2 = 0.6863 | 729.39 ± 4.7 | –
17010 kPa, x2 = 0.8711 | 750.52 ± 4.8 | –
18000 kPa, x2 = 0.6863 | 730.34 ± 4.7 | –
18010 kPa, x2 = 0.1907 | 707.33 ± 4.5 | –
18010 kPa, x2 = 0.3001 | 709.98 ± 4.6 | –
18010 kPa, x2 = 0.4326 | 714.25 ± 4.6 | –
18010 kPa, x2 = 0.8711 | 751.45 ± 4.8 | –
18020 kPa, x2 = 0.1391 | 706.37 ± 4.5 | –
19010 kPa, x2 = 0.1391 | 707.22 ± 4.5 | –
19010 kPa, x2 = 0.3001 | 710.9 ± 4.6 | –
19010 kPa, x2 = 0.4326 | 715.15 ± 4.6 | –
19010 kPa, x2 = 0.6863 | 731.24 ± 4.7 | –
19010 kPa, x2 = 0.8711 | 752.35 ± 4.8 | –
19020 kPa, x2 = 0.1907 | 708.2 ± 4.5 | –
20000 kPa, x2 = 0.1391 | 708.05 ± 4.5 | –
20000 kPa, x2 = 0.1907 | 709.04 ± 4.5 | –
20000 kPa, x2 = 0.8711 | 753.23 ± 4.8 | –
20010 kPa, x2 = 0.4326 | 716.08 ± 4.6 | –
20010 kPa, x2 = 0.6863 | 732.18 ± 4.7 | –
20020 kPa, x2 = 0.3001 | 711.75 ± 4.6 | –
